Key:
Test in all cases: radiometric filter-binding kinase assay
[1] = tested on: AKT2 (human), P31751 [S474D]; settings: compound 100.0 µM; ATP 50 µM
CDK2 CCNA2 (human) = CDK2 CCNA2 (human) (UniProt P20248+P24941); settings: compound 100.0 µM; ATP 20 µM
CHEK1 (human) = CHEK1 (human) (UniProt O14757); settings: compound 100.0 µM; ATP 20 µM
CHEK2 (human) = CHEK2 (human) (UniProt O96017); settings: compound 100.0 µM; ATP 20 µM
DYRK1A (human) = DYRK1A (human) (UniProt Q13627); settings: compound 100.0 µM; ATP 50 µM
EPHB2 (human) = EPHB2 (human) (UniProt P29323); settings: compound 100.0 µM; ATP 20 µM
EPHB2 (human), sequence (P29323 whole entry, looked up): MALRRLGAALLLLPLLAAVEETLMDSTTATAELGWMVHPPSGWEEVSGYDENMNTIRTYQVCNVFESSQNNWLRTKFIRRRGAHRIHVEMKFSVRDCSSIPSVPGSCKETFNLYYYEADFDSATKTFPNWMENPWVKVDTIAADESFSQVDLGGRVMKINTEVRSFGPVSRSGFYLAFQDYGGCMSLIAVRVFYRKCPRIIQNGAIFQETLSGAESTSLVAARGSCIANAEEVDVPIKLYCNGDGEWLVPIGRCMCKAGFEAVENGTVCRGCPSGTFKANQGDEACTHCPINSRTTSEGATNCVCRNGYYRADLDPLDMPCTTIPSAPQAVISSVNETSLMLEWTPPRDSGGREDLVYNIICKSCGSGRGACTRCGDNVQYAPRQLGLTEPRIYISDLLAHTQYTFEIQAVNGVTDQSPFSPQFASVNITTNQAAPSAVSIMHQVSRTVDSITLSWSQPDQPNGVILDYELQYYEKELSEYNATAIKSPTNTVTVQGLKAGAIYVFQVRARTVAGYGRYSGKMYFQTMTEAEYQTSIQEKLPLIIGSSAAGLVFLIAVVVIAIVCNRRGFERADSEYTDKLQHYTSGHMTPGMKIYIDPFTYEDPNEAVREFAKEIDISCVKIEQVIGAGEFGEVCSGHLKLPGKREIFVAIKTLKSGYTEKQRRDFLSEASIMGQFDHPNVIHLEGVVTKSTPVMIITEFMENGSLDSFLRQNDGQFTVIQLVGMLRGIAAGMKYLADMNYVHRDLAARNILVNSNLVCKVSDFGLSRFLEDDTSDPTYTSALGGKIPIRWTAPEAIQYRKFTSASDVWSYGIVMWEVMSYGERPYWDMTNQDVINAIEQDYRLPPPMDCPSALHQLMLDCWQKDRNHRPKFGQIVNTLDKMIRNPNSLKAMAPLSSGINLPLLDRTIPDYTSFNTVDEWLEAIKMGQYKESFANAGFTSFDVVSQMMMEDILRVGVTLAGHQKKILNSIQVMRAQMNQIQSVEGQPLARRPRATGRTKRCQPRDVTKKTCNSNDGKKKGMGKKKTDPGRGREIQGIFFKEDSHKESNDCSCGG

EPHB4 (human) = EPHB4 (human) (UniProt P54760); settings: compound 100.0 µM; ATP 5 µM
FLT1 (human) = FLT1 (human) (UniProt P17948); settings: compound 100.0 µM; ATP 20 µM
HIPK1 (human) = HIPK1 (human) (UniProt Q86Z02); settings: compound 100.0 µM; ATP 20 µM
HIPK3 (human) = HIPK3 (human) (UniProt Q9H422); settings: compound 100.0 µM; ATP 20 µM
IGF1R (human) = IGF1R (human) (UniProt P08069); settings: compound 100.0 µM; ATP 5 µM
INSRR (human) = INSRR (human) (UniProt P14616); settings: compound 100.0 µM; ATP 5 µM
JAK2 JH1 JH2 (human) = JAK2 JH1 JH2 (human) (UniProt O60674); settings: compound 100.0 µM; ATP 5 µM
MAP2K2 (human) = MAP2K2 (human) (UniProt P36507); settings: compound 100.0 µM; ATP 5 µM
MAP2K2 (human), sequence (P36507 whole entry, looked up): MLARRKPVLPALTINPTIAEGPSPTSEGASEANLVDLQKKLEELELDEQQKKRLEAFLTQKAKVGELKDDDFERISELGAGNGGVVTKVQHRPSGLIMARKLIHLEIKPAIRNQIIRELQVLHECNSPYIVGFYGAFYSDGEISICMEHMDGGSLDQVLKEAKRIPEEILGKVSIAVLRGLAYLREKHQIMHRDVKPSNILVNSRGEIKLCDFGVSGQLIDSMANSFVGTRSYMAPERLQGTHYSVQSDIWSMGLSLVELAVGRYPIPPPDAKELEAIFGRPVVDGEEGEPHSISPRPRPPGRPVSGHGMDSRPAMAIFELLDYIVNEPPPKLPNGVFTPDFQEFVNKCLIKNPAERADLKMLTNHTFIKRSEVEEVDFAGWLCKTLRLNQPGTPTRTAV

MAP2K6 (human) = MAP2K6 (human) (UniProt P52564); settings: compound 100.0 µM; ATP 50 µM
MAP2K6 (human), sequence (P52564 whole entry, looked up): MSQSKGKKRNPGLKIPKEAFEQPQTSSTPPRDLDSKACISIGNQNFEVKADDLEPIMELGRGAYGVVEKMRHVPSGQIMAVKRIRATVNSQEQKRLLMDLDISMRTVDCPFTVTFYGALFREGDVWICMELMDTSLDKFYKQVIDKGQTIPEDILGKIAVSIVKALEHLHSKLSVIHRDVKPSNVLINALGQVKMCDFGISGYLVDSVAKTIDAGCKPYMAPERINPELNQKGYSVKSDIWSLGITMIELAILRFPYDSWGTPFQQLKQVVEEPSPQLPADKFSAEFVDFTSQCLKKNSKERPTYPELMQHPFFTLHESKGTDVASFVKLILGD

MAP3K1 (human) = MAP3K1 (human) (UniProt Q13233); settings: compound 100.0 µM; ATP 50 µM
MAP3K7 TAB1 (human) = MAP3K7 TAB1 (human) (UniProt Q15750+O43318); settings: compound 100.0 µM; ATP 5 µM
MAPK10 (human) = MAPK10 (human) (UniProt P53779); settings: compound 100.0 µM; ATP 20 µM
MAPK10 (human), sequence (P53779 whole entry, looked up): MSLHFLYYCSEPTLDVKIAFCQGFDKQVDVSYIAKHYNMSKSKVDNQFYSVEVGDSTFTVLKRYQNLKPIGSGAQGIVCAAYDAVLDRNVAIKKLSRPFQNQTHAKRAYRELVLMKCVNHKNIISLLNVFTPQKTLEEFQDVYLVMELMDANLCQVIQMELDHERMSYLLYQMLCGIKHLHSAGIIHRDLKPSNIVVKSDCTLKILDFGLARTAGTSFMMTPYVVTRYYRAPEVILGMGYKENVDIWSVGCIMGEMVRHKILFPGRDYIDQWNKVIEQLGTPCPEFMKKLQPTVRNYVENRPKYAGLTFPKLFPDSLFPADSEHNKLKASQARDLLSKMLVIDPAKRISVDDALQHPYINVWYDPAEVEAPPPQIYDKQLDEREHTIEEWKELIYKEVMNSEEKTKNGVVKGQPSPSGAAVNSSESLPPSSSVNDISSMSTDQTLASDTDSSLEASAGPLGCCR

MAPK11 (human) = MAPK11 (human) (UniProt Q15759); settings: compound 100.0 µM; ATP 20 µM
MAPK11 (human), sequence (Q15759 whole entry, looked up): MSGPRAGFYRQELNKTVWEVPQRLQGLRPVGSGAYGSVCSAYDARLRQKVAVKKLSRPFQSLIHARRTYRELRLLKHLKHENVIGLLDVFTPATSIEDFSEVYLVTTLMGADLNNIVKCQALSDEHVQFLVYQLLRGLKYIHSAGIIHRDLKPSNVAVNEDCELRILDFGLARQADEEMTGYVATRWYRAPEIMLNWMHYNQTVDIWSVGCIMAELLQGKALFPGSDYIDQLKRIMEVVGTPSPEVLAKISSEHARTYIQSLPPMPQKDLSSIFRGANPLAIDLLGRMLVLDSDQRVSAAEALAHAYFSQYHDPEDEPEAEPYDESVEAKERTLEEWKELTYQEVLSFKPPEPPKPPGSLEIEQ

MAPK15 (human) = MAPK15 (human) (UniProt Q8TD08); settings: compound 100.0 µM; ATP 5 µM
MAPK15 (human), sequence (Q8TD08 whole entry, looked up): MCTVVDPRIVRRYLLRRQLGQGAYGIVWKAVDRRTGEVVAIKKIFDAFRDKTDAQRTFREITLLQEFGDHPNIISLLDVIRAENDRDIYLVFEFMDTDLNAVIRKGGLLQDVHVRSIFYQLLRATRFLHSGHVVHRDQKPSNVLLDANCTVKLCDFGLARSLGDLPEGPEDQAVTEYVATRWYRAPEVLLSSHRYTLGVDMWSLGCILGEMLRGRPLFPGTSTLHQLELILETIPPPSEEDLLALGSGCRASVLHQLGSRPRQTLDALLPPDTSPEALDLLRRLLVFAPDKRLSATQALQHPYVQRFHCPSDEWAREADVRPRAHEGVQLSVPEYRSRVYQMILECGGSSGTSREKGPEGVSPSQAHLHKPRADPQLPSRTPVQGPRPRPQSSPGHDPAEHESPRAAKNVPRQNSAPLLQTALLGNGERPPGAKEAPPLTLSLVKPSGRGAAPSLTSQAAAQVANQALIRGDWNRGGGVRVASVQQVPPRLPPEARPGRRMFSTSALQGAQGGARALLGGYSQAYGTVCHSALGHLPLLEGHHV

MAPKAPK3 (human) = MAPKAPK3 (human) (UniProt Q16644); settings: compound 100.0 µM; ATP 20 µM
MARK4 (human) = MARK4 (human) (UniProt Q96L34); settings: compound 100.0 µM; ATP 50 µM
NEK2 (human) = NEK2 (human) (UniProt P51955); settings: compound 100.0 µM; ATP 50 µM
NTRK1 (human) = NTRK1 (human) (UniProt P04629); settings: compound 100.0 µM; ATP 20 µM
PIM2 (human) = PIM2 (human) (UniProt Q9P1W9); settings: compound 100.0 µM; ATP 5 µM
PIM3 (human) = PIM3 (human) (UniProt Q86V86); settings: compound 100.0 µM; ATP 20 µM
PKN2 (human) = PKN2 (human) (UniProt Q16513); settings: compound 100.0 µM; ATP 5 µM
PLK1 (human) = PLK1 (human) (UniProt P53350); settings: compound 100.0 µM; ATP 5 µM
[2] = target: PRKAA1 PRKAB2 PRKAG1 (human) (UniProt O43741+Q13131+P54619); settings: compound 100.0 µM; ATP 20 µM
PRKCG (human) = PRKCG (human) (UniProt P05129); settings: compound 100.0 µM; ATP 20 µM
PRKCZ (human) = PRKCZ (human) (UniProt Q05513); settings: compound 100.0 µM; ATP 5 µM
RIPK2 (human) = RIPK2 (human) (UniProt O43353); settings: compound 100.0 µM; ATP 20 µM
RIPK2 (human), sequence (O43353 whole entry, looked up): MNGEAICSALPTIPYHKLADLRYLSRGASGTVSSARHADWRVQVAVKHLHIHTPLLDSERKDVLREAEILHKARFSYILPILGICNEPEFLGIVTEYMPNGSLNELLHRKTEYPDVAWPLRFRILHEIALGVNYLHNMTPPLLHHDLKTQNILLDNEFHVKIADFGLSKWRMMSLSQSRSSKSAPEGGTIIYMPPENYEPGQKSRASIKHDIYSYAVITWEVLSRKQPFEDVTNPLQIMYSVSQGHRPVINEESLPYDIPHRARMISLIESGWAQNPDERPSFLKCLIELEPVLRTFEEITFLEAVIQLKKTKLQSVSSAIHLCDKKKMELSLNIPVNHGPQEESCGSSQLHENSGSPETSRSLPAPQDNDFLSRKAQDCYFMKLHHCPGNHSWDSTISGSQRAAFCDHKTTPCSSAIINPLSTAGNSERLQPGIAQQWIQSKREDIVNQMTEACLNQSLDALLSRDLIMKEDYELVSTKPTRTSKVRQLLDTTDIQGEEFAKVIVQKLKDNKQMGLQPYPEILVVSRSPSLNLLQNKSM

ROCK2 (rat) = settings: compound 100.0 µM; ATP 20 µM; accession and sequence are those of the human protein
RPS6KA1 KD1 KD2 (human) = RPS6KA1 KD1 KD2 (human) (UniProt Q15418); settings: compound 100.0 µM; ATP 50 µM
[3] = tested on: RPS6KB1 (human), P23443 [T412E]; settings: compound 100.0 µM; ATP 20 µM
[4] = target: STK11 CAB39 STRADA (human) (UniProt Q9Y376+Q7RTN6+Q15831); settings: compound 100.0 µM; ATP 20 µM
STK11 CAB39 STRADA (human), sequence (Q15831 whole entry, looked up): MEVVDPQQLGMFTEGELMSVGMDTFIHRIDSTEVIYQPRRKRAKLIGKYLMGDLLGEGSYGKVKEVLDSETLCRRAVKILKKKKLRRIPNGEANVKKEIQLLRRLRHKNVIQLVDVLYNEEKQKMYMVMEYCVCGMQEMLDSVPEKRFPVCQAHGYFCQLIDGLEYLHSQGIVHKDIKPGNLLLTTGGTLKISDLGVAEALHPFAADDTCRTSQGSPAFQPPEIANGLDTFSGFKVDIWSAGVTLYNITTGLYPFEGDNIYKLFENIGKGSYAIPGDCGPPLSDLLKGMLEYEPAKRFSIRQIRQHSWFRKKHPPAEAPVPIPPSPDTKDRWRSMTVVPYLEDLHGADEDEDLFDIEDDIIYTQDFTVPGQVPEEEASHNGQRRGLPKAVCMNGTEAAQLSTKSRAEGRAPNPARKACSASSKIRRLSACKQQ
STK11 CAB39 STRADA (human), sequence (Q7RTN6 whole entry, looked up): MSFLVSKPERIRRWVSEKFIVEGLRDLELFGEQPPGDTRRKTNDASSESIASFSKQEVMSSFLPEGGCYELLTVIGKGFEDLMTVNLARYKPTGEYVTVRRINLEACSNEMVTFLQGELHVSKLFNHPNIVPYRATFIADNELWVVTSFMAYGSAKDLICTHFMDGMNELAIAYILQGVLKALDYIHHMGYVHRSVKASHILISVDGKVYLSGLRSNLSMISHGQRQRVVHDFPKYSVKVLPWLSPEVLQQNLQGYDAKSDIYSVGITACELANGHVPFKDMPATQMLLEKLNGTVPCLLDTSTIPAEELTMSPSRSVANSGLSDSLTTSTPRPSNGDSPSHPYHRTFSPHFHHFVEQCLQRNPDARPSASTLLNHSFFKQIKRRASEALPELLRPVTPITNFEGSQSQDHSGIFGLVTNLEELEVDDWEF
STK11 CAB39 STRADA (human), sequence (Q9Y376 whole entry, looked up): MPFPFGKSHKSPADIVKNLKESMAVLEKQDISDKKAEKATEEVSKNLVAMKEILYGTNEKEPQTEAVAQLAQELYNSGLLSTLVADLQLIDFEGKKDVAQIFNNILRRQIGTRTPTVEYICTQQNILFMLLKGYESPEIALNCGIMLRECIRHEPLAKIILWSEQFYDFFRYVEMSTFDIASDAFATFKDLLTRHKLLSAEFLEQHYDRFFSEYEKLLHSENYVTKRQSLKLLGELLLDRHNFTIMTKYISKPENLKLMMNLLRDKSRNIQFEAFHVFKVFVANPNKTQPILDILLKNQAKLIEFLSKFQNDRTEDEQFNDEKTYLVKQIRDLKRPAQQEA

STK3 (human) = STK3 (human) (UniProt Q13188); settings: compound 100.0 µM; ATP 20 µM
TBK1 (human) = TBK1 (human) (UniProt Q9UHD2); settings: compound 100.0 µM; ATP 50 µM
TTK (human) = TTK (human) (UniProt P33981); settings: compound 100.0 µM; ATP 20 µM

| SMILES | inhibition [1] | inhibition (CDK2 CCNA2 (human)) | inhibition (CHEK1 (human)) | inhibition (CHEK2 (human)) | inhibition (DYRK1A (human)) | inhibition (EPHB2 (human)) | inhibition (EPHB4 (human)) | inhibition (FLT1 (human)) | inhibition (HIPK1 (human)) | inhibition (HIPK3 (human)) | inhibition (IGF1R (human)) | inhibition (INSRR (human)) | inhibition (JAK2 JH1 JH2 (human)) | inhibition (MAP2K2 (human)) | inhibition (MAP2K6 (human)) | inhibition (MAP3K1 (human)) | inhibition (MAP3K7 TAB1 (human)) | inhibition (MAPK10 (human)) | inhibition (MAPK11 (human)) | inhibition (MAPK15 (human)) | further results |
| --- | --- | --- | --- | --- | --- | --- | --- | --- | --- | --- | --- | --- | --- | --- | --- | --- | --- | --- | --- | --- | --- |
| COc1ccc(NC(=S)Nc2cnc3[nH]cnn3c2=O)cn1 | 41% | 0% | 0% | 14% | 10% | 22% | 1% | 38% | 0% | 0% | 0% | 0% | 23% | 0% | 0% | 0% | 2% | 0% | 0% | 8% | inhibition (MAPKAPK3 (human)): 37%; inhibition (MARK4 (human)): 26%; inhibition (NEK2 (human)): 0%; inhibition (NTRK1 (human)): 0%; inhibition (PIM2 (human)): 0%; inhibition (PIM3 (human)): 0%; inhibition (PKN2 (human)): 1%; inhibition (PLK1 (human)): 8%; inhibition [2]: 0%; inhibition (PRKCG (human)): 0%; inhibition (PRKCZ (human)): 0%; inhibition (RIPK2 (human)): 0%; inhibition (ROCK2 (rat)): 7%; inhibition (RPS6KA1 KD1 KD2 (human)): 19%; inhibition [3]: 0%; inhibition [4]: 0%; inhibition (STK3 (human)): 0%; inhibition (TBK1 (human)): 7%; inhibition (TTK (human)): 0% |
| CC(C)(C)Nc1c(C2CC2)nc2[nH]cnn12 | 31% | 33% | 0% | 0% | 0% | 0% | 19% | 12% | 6% | 0% | 0% | 0% | 3% | 0% | 3% | 0% | 3% | 1% | 0% | 60% | inhibition (MAPKAPK3 (human)): 10%; inhibition (MARK4 (human)): 15%; inhibition (NEK2 (human)): 0%; inhibition (NTRK1 (human)): 27%; inhibition (PIM2 (human)): 15%; inhibition (PIM3 (human)): 0%; inhibition (PKN2 (human)): 17%; inhibition (PLK1 (human)): 0%; inhibition [2]: 5%; inhibition (PRKCG (human)): 9%; inhibition (PRKCZ (human)): 0%; inhibition (RIPK2 (human)): 0%; inhibition (ROCK2 (rat)): 2%; inhibition (RPS6KA1 KD1 KD2 (human)): 3%; inhibition [3]: 0%; inhibition [4]: 0%; inhibition (STK3 (human)): 0%; inhibition (TBK1 (human)): 1%; inhibition (TTK (human)): 10% |
| CC(=O)Nc1nc2cnc(-c3ccccc3)cn2n1 | 22% | 34% | 18% | 25% | 43% | 4% | 11% | 69% | 16% | 0% | 11% | 60% | 25% | 6% | 0% | 9% | 30% | 11% | 22% | 88% | inhibition (MAPKAPK3 (human)): 2%; inhibition (MARK4 (human)): 0%; inhibition (NEK2 (human)): 25%; inhibition (NTRK1 (human)): 28%; inhibition (PIM2 (human)): 11%; inhibition (PIM3 (human)): 30%; inhibition (PKN2 (human)): 13%; inhibition (PLK1 (human)): 4%; inhibition [2]: 14%; inhibition (PRKCG (human)): 2%; inhibition (PRKCZ (human)): 11%; inhibition (RIPK2 (human)): 29%; inhibition (ROCK2 (rat)): 25%; inhibition (RPS6KA1 KD1 KD2 (human)): 24%; inhibition [3]: 5%; inhibition [4]: 0%; inhibition (STK3 (human)): 0%; inhibition (TBK1 (human)): 31%; inhibition (TTK (human)): 4% |
| COc1ccc(-c2cc3c(=O)[nH]cnc3s2)cc1OC | 47% | 0% | 0% | 38% | 36% | 17% | 0% | 39% | 13% | 0% | 0% | 0% | 60% | 0% | 18% | 0% | 45% | 3% | 15% | 18% | inhibition (MAPKAPK3 (human)): 56%; inhibition (MARK4 (human)): 23%; inhibition (NEK2 (human)): 0%; inhibition (NTRK1 (human)): 15%; inhibition (PIM2 (human)): 25%; inhibition (PIM3 (human)): 61%; inhibition (PKN2 (human)): 0%; inhibition (PLK1 (human)): 0%; inhibition [2]: 0%; inhibition (PRKCG (human)): 0%; inhibition (PRKCZ (human)): 0%; inhibition (RIPK2 (human)): 65%; inhibition (ROCK2 (rat)): 19%; inhibition (RPS6KA1 KD1 KD2 (human)): 59%; inhibition [3]: 30%; inhibition [4]: 0%; inhibition (STK3 (human)): 9%; inhibition (TBK1 (human)): 3%; inhibition (TTK (human)): 25% |
| O=C(c1cccc(-c2cc3c(=O)[nH]cnc3s2)c1)N1CCOCC1 | 47% | 10% | 0% | 34% | 52% | 27% | 0% | 74% | 10% | 0% | 0% | 0% | 75% | 8% | 2% | 0% | 78% | 7% | 15% | 72% | inhibition (MAPKAPK3 (human)): 61%; inhibition (MARK4 (human)): 0%; inhibition (NEK2 (human)): 2%; inhibition (NTRK1 (human)): 41%; inhibition (PIM2 (human)): 13%; inhibition (PIM3 (human)): 51%; inhibition (PKN2 (human)): 0%; inhibition (PLK1 (human)): 0%; inhibition [2]: 50%; inhibition (PRKCG (human)): 16%; inhibition (PRKCZ (human)): 0%; inhibition (RIPK2 (human)): 12%; inhibition (ROCK2 (rat)): 39%; inhibition (RPS6KA1 KD1 KD2 (human)): 47%; inhibition [3]: 34%; inhibition [4]: 0%; inhibition (STK3 (human)): 27%; inhibition (TBK1 (human)): 17%; inhibition (TTK (human)): 0% |
